Test results from patent EP0273199A2, “Uses of 3,4-diphenyl piperidine derivatives or medicines, 3,4-diphenyl piperidine derivatives, and process for their preparation” (LABORATOIRES HOECHST S.A., priority 1986, dated 1988).
Read-outs that look alike come from different tables or passages of the source.

Columns and labels:
[1] = test system: durch Oxotremorin induzierten Hypothermie; test: Antioxotremorine activity (oxotremorine-induced hypothermia); format: in vivo, Maus; conditions: ip, read-out: Erste wirksame Dosis Oxotremorin
Experimental: Nach Ausgleich der Rektaltemperaturen erhalten Mäuse (6 pro Gruppe) entweder destillietes Wasser oder die verschiedenen zu untersuchenden Verbindungen i.p.
30 Minuten danach verabreicht man intraperitoneal Oxotremorin in einer Dosis von 0,5 mg/kg.
Die Mäuse werden dan beobachtet: Tremor wird je nach der Intensität von 0 bis 3 bewertet, und die Akinesie wird alle 10 Minuten über einen Zeitraum von 30 Minuten auf Vorliegen oder Fehlen bestimmt.
Außerdem beobachtet man 2 Stunden lang das Erscheinen peripherer Symptome (Tränen, Darmentleerung). Die Rektaltemperatur wird alle 30 Minuten über eine Zeitraum von 2 Stunden nach der Verabreichung des Oxotremorins gemessen.
Die eine antidepressive Aktivität besitzenden Produkte wirken der durch Oxotremorin induzierten Hypothermie entgegen.
Für jede Dosis der Verbindung berechnet man die prozentuale Hemmung der Hypothermie.

[2] = test system: Apomorphin 1 mg.kg^-1 s.c.; test: Apomorphine 1 mg/kg s.c. antagonism (no method given); format: in vivo; conditions: ip, Tabelle Ib; read-out: Erste wirksame Dosis Apomorphin 1 mg.kg^-1 s.c.
Apomorphin 16 mg/kg = test: Antiapomorphine activity (apomorphine 16 mg/kg s.c., hypothermia); format: in vivo, Maus; conditions: ip, Tabelle Ib; read-out: Erste wirksame Dosis Apomorphin 16 mg.kg^-1 s.c.
Experimental: Zur Zeit 0 nach Ausgleich der Reaktaltemperaturen werden die Mäuse (6 pro Gruppe) in deren Beobachtung gestattende Einzelkäfige (11 x 3,5 x 4 cm) eingeetzt. 30 Minuten nach i.p. bzw. p.o. Verabreichung der Testsubstanz erhalten sie Apomorphin subkutan in einer Dosis von 16 mg/kg. Die Rektaltemperatur wird 30 Minuten nach dem Apomorphin gemessen. Die Kontrolltiere erhalten destilliertes Wasser statt der zu untersuchenden Verbindungen. Die bei diesen Kontrolltieren, die 16 mg/kg Apomorphin erhalten haben, beobachtete Hypothermie liegt im Durchschnitt bei 33°C. Für jede Verbindungsdosis berechnet man die prozentuale Hemmung der Hypothermie.

Motoraktivität = test: Actimetry (motor activity, photocell actimeter); format: in vivo, Maus; conditions: Tabelle Ib; for Motilität: i.p., direction of change; for minimal effective dose: ip, read-out: Erste wirksame Dosis Motilität
Text: Die Motoraktivität wird mittels Photozellenaktimetern bestimmt (Boissier und Simon, Arch. Int. Pharmacodyn. 1965, 158, 212-221).
Die Mäuse (10 oder ein Vielfaches von 10 pro Gruppe) werden unmittelbar nach i.p. Verabreichung der zu untersuchenden Verbindungen in das Aktimeter eingesetzt. Die Motoraktivität wird danach bis zur 60. Minute gemessen. De Zähler werden nach 30 Minuten abgelesen und dann auf 0 zurückgestellt und im Verlauf von 30 Minuten alle 10 Minuten abgelesen.
Die Beweglichkeit der mit den verschiedenen Verbindungen behandelten Tiere wird mit derjenigen einer destilliertes Wasser erhaltenden Kontrollgruppe verglichen.
Die eine psychostimulierende Aktivität besitzenden Produkte verursachen eine Zunahme der Beweglichkeit.

Maus [3] = test: Tail suspension test; format: in vivo; conditions: for minimal effective dose: ip, Tabelle Ib, read-out: Erste wirksame Dosis T.S.T. Maus
Text: Schwanzaufhängungstest an der Maus wie von Stéru u.a. beschrieben (Psychopharmacology 85, 367-370, 1985).
Die Substanzen werden intraperitoneal 30 Minuten vor dem Test verabreicht und die Tiese isoliert (10 Mäuse pro Dosis).
Man bewertet die Dauer der Unbeweglichkeit, ausgedrückt in Sekunden über die 6 Minuten des Tests. Man untersucht auf eine Verkürzung dieser Unbeweglichkeitszeit.

Maus [4] = test: Behavioural despair test (Porsolt forced swimming); format: in vivo; conditions: mouse; for Dauer der Unbeweglichkeit: 30 min before test
Text: Test auf verzweifeltes Verhalten, wie von Porsolt u.a. (Arch. Int, Pharmacodyn. Ther. 229, 327 - 336, 1977) beschrieben.
Die Verbindungen werden intraperetoneal 30 Minuten vor dem Test verabreicht, und die Tiere werden vor dem erzwungenen Schwimmtest isoliert gehalten. Man bewertet die Dauer der Unbeweglichkeitsperioden in Sekunden ausgedrückt, die von der 2. bis zur 6. Minute nach dem Einsetzen des Tieres in Wasser gezählt werden.

[5] = test system: durch Reserpin induzierten Hypothermie; test: Antireserpine activity (reserpine-induced hypothermia); format: in vivo, Maus; conditions: ip, Tabelle Ib; read-out: Erste wirksame Dosis Reserpin
Experimental: Zur Zeit 0 erhalten die Mäuse intraperitoneal Reserpin (2,5 mg/kg).
4 Stunden danach, wenn die Hypothermie genügend stark erscheint (30 bis 33°C), verabreicht man die verschiedenen zu untersuchenden Verbindungen i.p. oder p.o. Alle 30 Minuten über einen Zeitraum von 2 Stunden mißt man die Rektaltemperatur mit einer auf konstante Tiefe eingeführten, ein Thermoelement tragenden Sonde. Die Rektaltemperatur der mit verschiedenen erfindungsgemäßen Verbindungen behandelten Tiere wird mit der Temperatur einer Kontrollgruppe verglichen, die destilliertes Wasser auf die gleiche Weise wie die untersuchten Verbindungen erhält.
Die Akinesie (fehlende Bewegungen) und Ptose (Öffnungsgrad des Augenlids von 0 bis 4 nach Rubin u.a 1957) werden ebenfalls alle 30 Minuten über einen Zeitraum von 2 Stunden bewertet.
Die eine antidepressive Aktivität besitzenden Produkte wirken der durch Reserpin induzierten Hypothermie entgegen. Für jede Dosis der verabreichten Verbindung berechnet man die prozentuale Hemmung der Hypothermie.

Toxizität des Yohimbins = test: Potentiation of yohimbine toxicity; format: in vivo, Maus; conditions: ip, Tabelle Ib; read-out: Erste wirksame Dosis Yohimbin
Experimental: Wirkung auf die Toxizität des Yohimbins
Zur Zeit 0 erhalten die Mäuse entweder destilliertes Wasser oder verschiedene zu untersuchende Verbindungen i.p. 30 Minuten danach verabreicht man ihnen subkutan eine infratoxische Dosis von 25 mg/kg Yohimbinchlorhydrat.
Die Mortalität wird jede Stunde über einen Zeitraum von 4 Stunden verfolgt und dann nach 24 Stunden notiert.
Die eine antidepressive Aktivität besitzenden Produkte verursachen eine Potenzierung der Toxizität des Yohimbins.

Maus [6] = test: Hot plate test (licking and jumping), analgesia; format: in vivo; conditions: mouse, reaction time, 8 mg/kg i.p., plate 56,6°C
Experimental: Heizplattentest: Lecken und Springen, wie von Jacob und Blozovski beschrieben (Arch. Int. Pharmacodyn. 133, 296-209, 1961).
Die in Sekunden ausgedrückten Reaktionszeiten auf einer Heizplatte werden unter Berücksichtigung des Leckens der Vorderpfoten und Springen des Tieres als Kriterien bewertet. Die beiden Reaktionen werden am selben, anfänglich untrainierten Tier mit einer maximalen Ansprechzeit (Obergrenze) von 240 Sekunden beobachtet. Die Temperatur der Platte wird auf 56,6°C gehalten.
Morphin als positive Kontrolle wird subkutan und die übrigen Substanzen (mg/kg) werden intraperitoneal 30 Minuten vor dem Test verabreicht. Positives Ansprechen zeigt sich in einer Zunahme der Reaktionszeit.
Wird der schadensverhütenden Wirkung eine Substanz durch Naloxon entegengewirkt, so kann man schließen, daß die Substanz tatsächlich eine analgetische Wirkung besitzt.

L-5-Hydroxytryptophan = test: Potentiation of L-5-hydroxytryptophan effects (head twitches, tremor); format: in vivo, Maus; conditions: mouse, 4 mg/kg i.p., 30 min before L-5 HTP 4 mg/kg i.p.
Experimental: L-5 HTP induziert an der Maus ruckartige Bewegungen des Kopfes (Kopfzuckungen). Die zu untersuchenden Substanzen werden den Tieren (10 Mäuse pro Dosis) intraperitoneal 30 Minuten vor dem L-5 HTP (4 mg/kg intraperitoneal) verabreicht. Die ruckartigen Kopfbewegungen und der Tremor werden 1 Minutre lang alle 10 Minuten im Verlauf einer Stunde bewertet. Desimipramin und Indalpin sind die Kontrol-(Vergleichs-)verbindungen. Ein antidepressiver Effekt zeigt sich durch eine Zunahme der ruckartigen Kopfbewegungen und des Tremors.

Structure (SMILES) | minimal effective dose [2] | minimal effective dose (Apomorphin 16 mg/kg) | Motilität (Motoraktivität) | minimal effective dose (Motoraktivität) | minimal effective dose (Maus [3]) | minimal effective dose [5] | minimal effective dose (Toxizität des Yohimbins) | also measured
CN1Cc2c(N)cccc2C(c2ccccc2)C1 (stereo not shown) [NOMIFENSIN] | 2 mg/kg | 2 mg/kg | ↗ | 4 mg/kg | 0.25 mg/kg | 8 mg/kg | 4 mg/kg | minimal effective dose [1]: 16 mg/kg; % Antagonismus (Maus [3]; mouse, 0,06 mg/kg i.p.): 35%; Dauer der Unbeweglichkeit (Maus [3]; mouse, 0,06 mg/kg i.p.): 59 ± 9 Sekunden; % Antagonismus (Maus [3]; mouse, 0,25 mg/kg i.p.): 55%; Dauer der Unbeweglichkeit (Maus [3]; mouse, 0,25 mg/kg i.p.): 41 ± 6 p < 0,01 Sekunden; % Antagonismus (Maus [3]; mouse, 1 mg/kg i.p.): 66%; Dauer der Unbeweglichkeit (Maus [3]; mouse, 1 mg/kg i.p.): 31 ± 6 p < 0,01 Sekunden; % Antagonismus (Maus [3]; mouse, 4 mg/kg i.p.): 80%; Dauer der Unbeweglichkeit (Maus [3]; mouse, 4 mg/kg i.p.): 18 ± 5 p < 0,001 Sekunden; % Antagonismus (Maus [4]; 4 mg/kg i.p.): 39%; Dauer der Unbeweglichkeit (Maus [4]; 4 mg/kg i.p.): 120 ± 23 p < 0,001 Sekunden
CNCCCN1c2ccccc2CCc2ccccc21 [DESIPRAMIN, reference compound] | > 16 mg/kg | 2 mg/kg | ↘ | 4 mg/kg | 1 to 4 mg/kg | 0.25 mg/kg | 0.5 mg/kg | Pfotenlecken (Maus [6]): 8,2 ± 0,5 p < 0,001 Sekunden; Sprünge (Maus [6]): 85 ± 7 Sekunden; Tremor (L-5-Hydroxytryptophan): 0,5 ± 0,2; ruckartige Kopfbewegungen (L-5-Hydroxytryptophan): 3,8 ± 0,4 p < 0,01; % Antagonismus (Maus [4]; 8 mg/kg i.p.): 48%; Dauer der Unbeweglichkeit (Maus [4]; 8 mg/kg i.p.): 105 ± 16 p < 0,001 Sekunden
CN1CCN2c3ccccc3Cc3ccccc3C2C1 (stereo not shown) [MIANSERIN, reference compound] | 64 mg/kg | 64 mg/kg | ↘ | 32 mg/kg | – | > 32 mg/kg | – | minimal effective dose ([1]; Tabelle Ib): 32 mg/kg
